According to publication PMC8147293, “Library of Selenocyanate and Diselenide Derivatives as In Vivo Antichagasic Compounds Targeting Trypanosoma cruzi Mitochondrion” (Pharmaceuticals, 2021):
Where two headings read alike, the source gives them in different places.

What was measured:
[1] = system: epimastigotes of T. cruzi Arequipa strain; experiment: Screening against extracellular epimastigotes (resazurin); assay type: cell-based, Trypanosoma cruzi; conditions: for IC50: Trypanosoma cruzi; for Selectivity Index Epimast.: IC50 Vero cells/IC50 epimastigotes
Method: Trypanocidal activity against epimastigotes of T. cruzi Arequipa strain (MHOM/Pe/2011/Arequipa, discrete typing unit V) was tested as previously described. In short, 5 × 10^5 epimastigotes·mL^−1 were treated by adding the tested compounds at a concentration range from 100 to 0.2 µM in 96-well microplates (200 µL·well^−1) for 48 h. Subsequently, resazurin sodium salt (Sigma-Aldrich) was added to be incubated for further 24 h. Finally, the absorbance was measured, and the trypanocidal activity was expressed as the IC50 (inhibitory concentration 50) using GraphPad Prism 6 software. Each compound concentration was tested in triplicate in three independent experiments.

Mammalian Vero cells = experiment: Cytotoxicity test on Vero cells (resazurin); assay type: cell-based; conditions: Chlorocebus sabaeus; for IC50: Table S1, cultured Vero cells, read-out: Toxicity IC50 Vero cell; for CC50: 72 h, Table 1, Vero cells, 48 h + 24 h resazurin, read-out: Toxicity IC50 Vero Cell
Method: Mammalian Vero cells (EACC No. 84113001), cultured as previously reported, were used to determine the cytotoxicity of the tested compounds [56]. In short, 1.25 × 10^4 Vero cells·mL^−1 were treated by adding the compounds at a concentration range from 400 to 1 µM in 96-well microplates (200 µL·well^−1) at 37 °C for 48 h. Subsequently, resazurin sodium salt (Sigma-Aldrich) was added to be incubated for further 24 h. Finally, cell viability was determined following the same procedure as described to assess the trypanocidal activity in the epimastigotes. Each compound concentration was tested in triplicate in three independent experiments.

[2] = system: Trypanosoma cruzi intracellular amastigotes; experiment: Screening against intracellular amastigotes in Vero cells (Giemsa counting); assay type: cell-based; conditions: for Selectivity Index Amast.: IC50 Vero cells/IC50 amastigotes; for IC50: Trypanosoma cruzi, Table 1, intracellular amastigotes in Vero cells, 72 h, read-out: Activity IC50 Amast.
Method: Trypanocidal activity against amastigotes was determined according to the literature reported previously. […]. […] Each compound concentration was tested in triplicate in four separate determinations.

[3] = system: Trypanosoma cruzi bloodstream trypomastigotes (BTs); experiment: Screening against bloodstream trypomastigotes (resazurin); assay type: cell-based; conditions: for Selectivity Index Trypomast.: IC50 Vero cells/IC50 trypomastigotes; for IC50: Trypanosoma cruzi, Table 1, bloodstream trypomastigotes, 24 h treatment + 4 h resazurin, read-out: Activity IC50 Trypomast.
Method: 2 × 10^6 Bloodstream trypomastigotes (BTs), obtained by cardiac puncture from infected BALB/c mice as previously described, were treated by adding the tested compounds at a concentration range from 50 to 0.1 µM in 96-well microplates (200 µL·well^−1) at 37 °C. After 24 h of treatment, resazurin sodium salt (Sigma-Aldrich) was added to be incubated for further 4 h. Finally, trypanocidal activity was determined following the same procedure as described to assess the trypanocidal activity in the epimastigotes. Each compound concentration was tested in triplicate in three independent experiments.

[4] = Table S1, cultured epimastigote form of T. cruzi, read-out: Activity IC50
[5] = Table 1, T. cruzi epimastigotes, 48 h treatment + 24 h resazurin, read-out: Activity IC50 Epimast.
[6] = 72 h, Table 1, T. cruzi epimastigotes, 48 h treatment + 24 h resazurin, read-out: Activity IC50 Epimast.

N#C[Se]Cc1ccc2ccccc2n1 [compound 27]
IC50 [1, 4]: 99.5 ± 6.1 µM | IC50 (Mammalian Vero cells): 68.3 ± 6.7 µM

N#C[Se]Cc1ccccc1 [compound 3]
IC50 (Mammalian Vero cells): 53.3 ± 2.5 µM

O=S(=O)(Nc1ccc([Se][Se]c2ccc(NS(=O)(=O)c3ccc(Br)cc3)cc2)cc1)c1ccc(Br)cc1 [compound 33]
IC50 [1, 4]: 10.2 ± 0.8 µM | IC50 (Mammalian Vero cells): 49.7 ± 3.2 µM

N#C[Se]Cc1c2ccccc2cc2ccccc12 [compound 28]
IC50 [1, 4]: 21.4 ± 0.9 µM | IC50 (Mammalian Vero cells): 169 ± 9.7 µM

Brc1ccc(C[Se][Se]Cc2ccc(Br)cc2)cc1 [compound 2]
IC50 [1, 4]: 39.3 ± 4.1 µM | IC50 (Mammalian Vero cells): 30.7 ± 2.1 µM

O=S(=O)(Nc1ccc([Se][Se]c2ccc(NS(=O)(=O)c3ccc(C(F)(F)F)cc3)cc2)cc1)c1ccc(C(F)(F)F)cc1 [compound 42]
IC50 [1, 4]: 5.9 ± 0.4 µM | IC50 (Mammalian Vero cells): 36 ± 2.3 µM

Cc1ccc(C[Se]C#N)cc1 [compound 11]
Selectivity Index Epimast. [1]: 20 | IC50 [1, 5]: 3 ± 0.4 µM | IC50 [1, 4]: ≤ 10 µM | CC50 (Mammalian Vero cells): 61.3 ± 3.7 µM | Selectivity Index Amast. [2]: 20 | IC50 [2]: 3.1 ± 0.1 µM | Selectivity Index Trypomast. [3]: 14 | IC50 [3]: 4.5 ± 0.6 µM

N#C[Se]Cc1nc2ccccc2nc1C[Se]C#N [compound 29]
IC50 [1, 4]: 32.1 ± 1.1 µM | IC50 (Mammalian Vero cells): 67.4 ± 3.5 µM

O=S(=O)(Nc1ccc([Se][Se]c2ccc(NS(=O)(=O)c3ccc4ccccc4c3)cc2)cc1)c1ccc2ccccc2c1 [compound 44]
IC50 [1, 4]: 5.6 ± 1.1 µM | IC50 (Mammalian Vero cells): 30.8 ± 2.2 µM

O=[N+]([O-])c1cccc(C[Se][Se]Cc2cccc([N+](=O)[O-])c2)c1 [compound 18]
IC50 [1, 4]: 1.5 ± 0.3 µM | IC50 (Mammalian Vero cells): 7.3 ± 1.1 µM

N#C[Se]Cc1ccc(C#N)cc1 [compound 13]
IC50 [1, 4]: 1.9 ± 0.7 µM | IC50 (Mammalian Vero cells): 12.8 ± 0.7 µM

N#C[Se]Cc1cccc2cccnc12 [compound 25]
IC50 [1, 4]: 10.3 ± 0.8 µM | IC50 (Mammalian Vero cells): 12.6 ± 0.3 µM

O=S(=O)(Nc1ccc([Se][Se]c2ccc(NS(=O)(=O)c3ccc(-c4ccccc4)cc3)cc2)cc1)c1ccc(-c2ccccc2)cc1 [compound 46]
Selectivity Index Epimast. [1]: 18 | IC50 [1, 6]: 2.7 ± 0.8 µM | IC50 [1, 4]: ≤ 10 µM | CC50 (Mammalian Vero cells): 48.6 ± 3.5 µM | Selectivity Index Amast. [2]: 21 | IC50 [2]: 2.3 ± 0.1 µM | Selectivity Index Trypomast. [3]: 24 | IC50 ([3]; 28 h): 2 ± 0.3 µM

O=S(=O)(Nc1ccc([Se][Se]c2ccc(NS(=O)(=O)c3ccc(F)cc3)cc2)cc1)c1ccc(F)cc1 [compound 36]
IC50 [1, 4]: 11.1 ± 0.8 µM | IC50 (Mammalian Vero cells): 70.8 ± 4.8 µM

COc1cc2oc(=O)cc(C[Se]C#N)c2cc1OC [compound 30]
IC50 [1, 4]: 30.9 ± 1.4 µM | IC50 (Mammalian Vero cells): 109 ± 10.5 µM

CSc1ccc(C[Se]C#N)cc1 [compound 9]
IC50 [1, 4]: 11.3 ± 0.7 µM | IC50 (Mammalian Vero cells): 67.3 ± 4.9 µM

O=S(=O)(Nc1ccc([Se][Se]c2ccc(NS(=O)(=O)c3ccccc3F)cc2)cc1)c1ccccc1F [compound 37]
IC50 [1, 4]: 46.1 ± 3.1 µM | IC50 (Mammalian Vero cells): 39.6 ± 3.1 µM

Cc1ccc(C[Se][Se]Cc2ccc(C)cc2)cc1 [compound 12]
IC50 [1, 4]: 19.4 ± 1.5 µM | IC50 (Mammalian Vero cells): 4.9 ± 0.7 µM

N#C[Se]Cc1ccc([N+](=O)[O-])cc1 [compound 5]
IC50 [1, 4]: 21.8 ± 2.2 µM | IC50 (Mammalian Vero cells): 28.6 ± 2.4 µM

Cn1ccnc1S(=O)(=O)Nc1ccc([Se][Se]c2ccc(NS(=O)(=O)c3nccn3C)cc2)cc1 [compound 47]
Selectivity Index Epimast. [1]: 12 | IC50 [1, 6]: 3.6 ± 0.3 µM | IC50 [1, 4]: ≤ 10 µM | CC50 (Mammalian Vero cells): 44.7 ± 3 µM | Selectivity Index Amast. [2]: 15 | IC50 [2]: 3 ± 0.4 µM | Selectivity Index Trypomast. [3]: 12 | IC50 ([3]; 28 h): 3.8 ± 0.4 µM

O=S(=O)(Nc1ccc([Se][Se]c2ccc(NS(=O)(=O)c3ccccc3)cc2)cc1)c1ccccc1 [compound 41]
IC50 [1, 4]: 6.8 ± 0.7 µM | IC50 (Mammalian Vero cells): 26.5 ± 1.4 µM

O=S(=O)(Nc1ccc([Se][Se]c2ccc(NS(=O)(=O)c3ccc(Cl)cc3)cc2)cc1)c1ccc(Cl)cc1 [compound 34]
IC50 [1, 4]: 41.3 ± 2.1 µM | IC50 (Mammalian Vero cells): 29.8 ± 3.4 µM

N#C[Se]Cc1cc2c(cc1Br)OCO2 [compound 23]
IC50 [1, 4]: 14.1 ± 0.9 µM | IC50 (Mammalian Vero cells): 38.9 ± 2.1 µM

O=[N+]([O-])c1ccc(C[Se][Se]Cc2ccc([N+](=O)[O-])cc2)cc1 [compound 6]
IC50 [1, 4]: 13.6 ± 0.7 µM | IC50 (Mammalian Vero cells): 28.2 ± 1.1 µM

N#C[Se]Cc1ccccc1C#N [compound 19]
IC50 [1, 4]: 29.1 ± 3 µM | IC50 (Mammalian Vero cells): 18.5 ± 0.7 µM

O=S(=O)(Nc1ccc([Se][Se]c2ccc(NS(=O)(=O)c3cccc4cccnc34)cc2)cc1)c1cccc2cccnc12 [compound 45]
IC50 [1, 4]: 1.7 ± 0.3 µM | IC50 (Mammalian Vero cells): 14.3 ± 1.1 µM

N#Cc1ccc(S(=O)(=O)Nc2ccc([Se][Se]c3ccc(NS(=O)(=O)c4ccc(C#N)cc4)cc3)cc2)cc1 [compound 40]
IC50 [1, 4]: 3.8 ± 0.1 µM | IC50 (Mammalian Vero cells): 16 ± 1.7 µM

N#C[Se]Cc1cccc([N+](=O)[O-])c1 [compound 17]
IC50 [1, 4]: 37.4 ± 2.6 µM | IC50 (Mammalian Vero cells): 81.2 ± 4.8 µM

O=[N+]([O-])c1ccc(S(=O)(=O)Nc2ccc([Se][Se]c3ccc(NS(=O)(=O)c4ccc([N+](=O)[O-])cc4)cc3)cc2)cc1 [compound 39]
IC50 [1, 4]: 17.1 ± 1.3 µM | IC50 (Mammalian Vero cells): 11.7 ± 2.7 µM

c1cnc2c(C[Se][Se]Cc3cccc4cccnc34)cccc2c1 [compound 26]
IC50 [1, 4]: 6.7 ± 0.4 µM | IC50 (Mammalian Vero cells): 19.6 ± 1 µM

O=[N+]([O-])c1ccccc1C[Se][Se]Cc1ccccc1[N+](=O)[O-] [compound 16]
IC50 [1, 4]: 18.4 ± 2.3 µM | IC50 (Mammalian Vero cells): 18.9 ± 2.4 µM

O=S(=O)(Nc1ccc([Se][Se]c2ccc(NS(=O)(=O)c3ccccc3Cl)cc2)cc1)c1ccccc1Cl [compound 35]
IC50 [1, 4]: 28.4 ± 1.7 µM | IC50 (Mammalian Vero cells): 69 ± 5.3 µM

Brc1cc2c(cc1C[Se][Se]Cc1cc3c(cc1Br)OCO3)OCO2 [compound 24]
IC50 [1, 4]: 45.7 ± 2.6 µM | IC50 (Mammalian Vero cells): 61.8 ± 4.1 µM

N#C[Se]Cc1ccc(Br)cc1 [compound 1]
IC50 [1, 4]: 39.1 ± 2.5 µM | IC50 (Mammalian Vero cells): 68.4 ± 3.7 µM

N#Cc1ccccc1C[Se][Se]Cc1ccccc1C#N [compound 20]
Selectivity Index Epimast. [1]: 13 | IC50 [1, 6]: 1.3 ± 0.2 µM | IC50 [1, 4]: ≤ 10 µM | CC50 (Mammalian Vero cells): 16.4 ± 0.5 µM | Selectivity Index Amast. [2]: 16 | IC50 [2]: 1 ± 0.1 µM | Selectivity Index Trypomast. [3]: 18 | IC50 ([3]; 28 h): 0.9 µM

N#Cc1cccc(C[Se][Se]Cc2cccc(C#N)c2)c1 [compound 22]
IC50 [1, 4]: 39.7 ± 2.6 µM | IC50 (Mammalian Vero cells): 29.8 ± 3 µM

N#C[Se]CC(=O)C12CC3CC(CC(C3)C1)C2 [compound 31]
IC50 [1, 4]: 13.2 ± 0.8 µM | IC50 (Mammalian Vero cells): 85.5 ± 4.9 µM

Cc1ccc(S(=O)(=O)Nc2ccc([Se][Se]c3ccc(NS(=O)(=O)c4ccc(C)cc4)cc3)cc2)cc1 [compound 43]
Selectivity Index Epimast. [1]: 13 | IC50 [1, 5]: 5.1 ± 0.6 µM | IC50 [1, 4]: ≤ 10 µM | CC50 (Mammalian Vero cells): 66.9 ± 6.2 µM | Selectivity Index Amast. [2]: 16 | IC50 [2]: 4.2 ± 0.7 µM | Selectivity Index Trypomast. [3]: 18 | IC50 [3]: 3.7 ± 0.2 µM

N#C[Se]Cc1cccc(C#N)c1 [compound 21]
Selectivity Index Epimast. [1]: 22 | IC50 [1, 5]: 1 ± 0.2 µM | IC50 [1, 4]: ≤ 10 µM | CC50 (Mammalian Vero cells): 21.7 ± 1.8 µM | Selectivity Index Amast. [2]: 27 | IC50 [2]: 0.8 ± 0.1 µM | Selectivity Index Trypomast. [3]: 24 | IC50 [3]: 0.9 ± 0.1 µM

N#Cc1ccc(C[Se][Se]Cc2ccc(C#N)cc2)cc1 [compound 14]
IC50 [1, 4]: 27.9 ± 2.9 µM | IC50 (Mammalian Vero cells): 8.9 ± 1.5 µM

O=S(=O)(Nc1ccc([Se][Se]c2ccc(NS(=O)(=O)c3cccs3)cc2)cc1)c1cccs1 [compound 48]
IC50 [1, 4]: 1.8 µM | IC50 (Mammalian Vero cells): 15.7 ± 1.1 µM

c1ccc(C[Se][Se]Cc2ccccc2)cc1 [compound 4]
IC50 [1, 4]: 35.4 ± 3.6 µM | IC50 (Mammalian Vero cells): 26.8 ± 1.3 µM

N#C[Se]Cc1ccc(C(F)(F)F)cc1 [compound 7]
IC50 [1, 4]: 34.1 ± 2.6 µM | IC50 (Mammalian Vero cells): 50.5 ± 3.8 µM

COc1ccc(S(=O)(=O)Nc2ccc([Se][Se]c3ccc(NS(=O)(=O)c4ccc(OC)cc4)cc3)cc2)cc1 [compound 38]
IC50 [1, 4]: 27.8 ± 1.6 µM | IC50 (Mammalian Vero cells): 40.3 ± 2.5 µM
